Assay results published in paper PMC3807247 (Journal of the American Chemical Society, 2009).
Like-named read-outs stand apart in the source and are kept apart here.

Tests used:
[1] = biological target: full length Udorn AM2 protein (Influenza A virus, UniProt P0DOF5); experiment: Two-electrode voltage clamp; assay type: cell-based, influenza virus A/Udorn/72; details: for inhibitory activity against AM2 (in words): tested at 100 μM; for AM2 remaing Activity after 100uM inhibition: Table 1, 100 uM inhibitor, pH 5.5, -20 mV
[2] = system: AM2 channel expressed in Xenopus oocytes; details: BL-1743, TEV; cited from earlier work
[3] = read-out: Activity remaining activity after 100uM inhibition

Chain of full length Udorn AM2 protein (P0DOF5 whole entry, looked up): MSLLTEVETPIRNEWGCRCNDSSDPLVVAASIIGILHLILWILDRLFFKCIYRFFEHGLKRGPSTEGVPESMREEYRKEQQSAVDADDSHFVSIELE

Question: Which “inhibitory activity against AM2 (in words)” value (“inhibitory activity” for short) [1] does the source give for NC(=S)N1CCC2(CCCCC2)CC1 [Compound 13, 3-Azaspiro[5,5]undecane-3-carbothioamide] here?
Answer: not active

Question: For C1CCC2(CC1)CCN(CC1CC1)CC2 [Compound 1, 3-(Cyclopropylmethyl)-3-azaspiro[5,5]undecane], which “AM2 remaing Activity after 100uM inhibition” value ([1]; TEV, Xenopus oocytes) is on record?
Answer: 100%

Question: For c1nc(CN2CCC3(CCCCC3)CC2)c[nH]1 [Compound 7, 3-((1H-Imidazol-4-yl)methyl)-3-azaspiro[5.5]undecane], which “AM2 remaing Activity after 100uM inhibition” value ([1]; TEV, Xenopus oocytes) is on record?
Answer: 70%

Question: And the “inhibitory activity” value [1]?
Answer: moderate inhibition

Question: For c1cc(CN2CCC3(CCCCC3)CC2)cs1 [Compound 3, 3-(Thiophen-3-ylmethyl)-3-azaspiro[5,5]undecane], which “AM2 remaing Activity after 100uM inhibition” value ([1]; TEV, Xenopus oocytes) is on record?
Answer: 90%

Question: For c1ccc(CN2CCC3(CCCCC3)CC2)nc1 [Compound 6, 3-(Pyridin-2-ylmethyl)-3-azaspiro[5,5]undecane], which “AM2 remaing Activity after 100uM inhibition” value ([1]; TEV, Xenopus oocytes) is on record?
Answer: 100%

Question: Which “AM2 remaing Activity after 100uM inhibition” value ([1]; TEV, Xenopus oocytes) does the source give for C1CCC2(CC1)CCN(C1=NCCN1)CC2.I [BL-1743, 3-(4,5-Dihydro-1H-imidazol-2-yl)-3-azaspiro[5,5]undecane Hydroiodide, reference compound] here?
Answer: 25%

Question: What about the “Hill coefficient for inhibition” value [2] of the same compound?
Answer: 1.0

Question: Which remaining activity at 100 µM ([1]; read-out: AM2 remaining Activity after 100uM inhibition) does the source give for CCC1(C)CCNCC1 [Compound 20, 4-Ethyl-4-methylpiperidinium Chloride] here?
Answer: 22%

Question: For c1c[nH]c(CN2CCC3(CCCCC3)CC2)n1 [Compound 8, 3-((1H-Imidazol-2-yl)methyl)-3-azaspiro[5.5]undecane], which “AM2 remaing Activity after 100uM inhibition” value ([1]; TEV, Xenopus oocytes) is on record?
Answer: 49%

Question: And the “inhibitory activity” value [1]?
Answer: moderate inhibition

Question: With CN1CCC2(CCCCC2)CC1.Cl [Compound 10, 3-Methyl-3-azoniaspiro[5,5]undecane Chloride] as the compound, how does the “decrease in activity relative to spiro-piperidine 9” value ([1]; ratio of IC50 values) read?
Answer: approximately 20 fold

Question: For C1CCC2(CC1)CCNC2 [Compound 16, 2-Azoniaspiro[4,5]decane Chloride], which IC50 [1] is on record?
Answer: 12 ± 1.6 µM

Question: Which “AM2 remaing Activity after 100uM inhibition” value ([1]; TEV, Xenopus oocytes) does the source give for Cn1cc(CN2CCC3(CCCCC3)CC2)cn1 [Compound 4, 3-((1-Methyl-1H-pyrazol-4-yl)methyl)-3-azaspiro[5,5]undecane] here?
Answer: 100%

Question: Which IC50 [1] does the source give for C1COC2(CCNCC2)OC1 [Compound 17, 1,5-Dioxa-9-azaspiro[5,5]undecane] here?
Answer: > 100 µM

Question: And the remaining activity at 100 µM [1, 3]?
Answer: 100%

Question: With Cc1cc(CN2CCC3(CCCCC3)CC2)no1 [Compound 5, 3-(3-Azaspiro[5,5]undecan-3-ylmethyl)-5-methylisoxazole] as the compound, how does the “AM2 remaing Activity after 100uM inhibition” value ([1]; TEV, Xenopus oocytes) read?
Answer: 100%

Question: Which “AM2 remaing Activity after 100uM inhibition” value ([1]; TEV, Xenopus oocytes) does the source give for C1CCC2(CC1)CCN(CC1CCCC1)CC2 [Compound 2, 3-(Cyclopentylmethyl)-3-azaspiro[5,5]undecane] here?
Answer: 100%

Question: With NC(=O)N1CCC2(CCCCC2)CC1 [Compound 12, 3-Azaspiro[5,5]undecane-3-carboxamide] as the compound, how does the “inhibitory activity” value [1] read?
Answer: not active

Question: Which results are given for C1CCC2(CC1)CCNCC2.Cl [Compound 9, 3-Azaspiro[5,5]undecane Chloride]?
Answer: IC50 ([1]; Table 2, TEV, Xenopus oocytes): 0.92 ± 0.11 µM; increase in potency relative to BL-1743 ([1]; ratio of IC50 values): more than 45 fold

Question: For C1CSC2(CCNCC2)SC1 [Compound 18, 1,5-Dithia-9-azaspiro[5,5]undecane], which IC50 [1] is on record?
Answer: 37.6 ± 2.67 µM

Question: And the remaining activity at 100 µM [1, 3]?
Answer: 12%
